Results as given in patent US6667293B1, “Use of cyclodextrins to modulate gene expression with reduced immunostimulatory response” (priority 1995, dated 2003).

How the values were obtained:
spleen of CD1 mice = test: Spleen size (spleen weight) after intraperitoneal injection; type: in vivo, mouse
Experimental: (§1) Male CD1 mice (4-5 weeks, 20-22 g, Charles river, Wilmington, Mass.) were used in this study. The animals were fed with commercial diet and water ad libidum and were kept at the animal facility of the University of Massachusetts Medical Center (Worcester, Mass.). For in vivo studies, phosphorothioate oligonucleotides (final concentration 4 mg/ml) were mixed with 5% of the cyclodextrin HPCD or HECD in sterile PBS, sonicated at 4° C. for 1 hour, followed by incubation at 4° C. overnight. The phosphorothioate oligonucleotide, either in plain PBS or mixed with cyclodextrin, was injected into mice intraperitoneally, in a volume of 0.25 ml (1 mg/mouse). After 24 hr (in the case of the phosphorothioate oligonucleotide of SEQ ID NO:4) and 48 hr (in the case of the phosphorothioate oligonucleotide of SEQ ID NO:2), mice were sacrificed and spleens were collected and prepared for further studies. Two or three mice were studied for each condition and analyzed individually.

HIV-1 = conditions: background statement; cited from earlier work
mouse splenocytes = test: Splenic cell proliferation assay, [3H]-thymidine incorporation; type: cell-based; conditions: for cell proliferation ([3H]-thymidine incorporation): oligonucleotide alone, FIG. 1 / FIG. 3 (SEQ ID NO:4 at 1 or 10 μg/ml)
Experimental: Mouse spleen was taken from male CD1 mouse (4-5 weeks, Charles River, Wilmington, Mass.). Single cell suspensions were prepared by gently mincing with frosted ends of glass slides, washed twice, and then resuspended in RPMI complete medium [RPMI 1640 medium supplemented with 10%-heat inactivated (56° C. for 30 minutes) fetal bovine serum, 2 mM glutamine, 100 μg/ml streptomycin, 100 U/ml penicillin, and 50 μM 2-mercaptoethanol]. The cells were then plated in 96-well dishes at a density of 10^6 cells/ml, in a final volume of 100 μl. Oligonucleotides were added to the cell culture in 10 μl of TE buffer (10 mM Tris-HCL pH 7.5, 1 mM EDTA). Cyclodextrin analogs: 2-hydroxypropyl-βcyclodextrin (HPCD, degree of substitution 5-8), hydroxyethyl-β cyclodextrin (HECD, degree of substitution 15), and Encapsin (which is a mixture of hydroxypropyl β-cyclodextrin but has a different degree of substitution, 17.8), were purchased pyrogen free (Amaizo, Hammond, Ind.) and were added to the cells at concentration of 0.5% in RPMI medium except where indicated. Cells were then set to culture in a 37° C., 5% CO2-[…], humidified air incubator for further studies. The experiments were done in triplicate.
After 44 hours, cells were pulsed-labeled with 1 μCi [^3H]-thymidine/well (in 20 μl of RPMI medium) for 4 hours. Cells were then harvested by an automatic cell harvester (Skatron, Sterling, Va.) and the filters were counted using a scintillation counter. […] All the three cyclodextrin analogs reduced cell proliferation to similar levels.

[1] = tested on: spleen lymphocytes of CD1 mice; test: Immunoglobulin synthesis (IgG/IgM ELISA) by spleen cells of in vivo treated mice; design: species or system mouse
Experimental: as §1
Spleens from in vivo treated mice were harvested and single cell suspensions were set in culture at a density of 10^6 cells/ml, in 1 ml RPMI complete medium. […] The optical density (405 nm) was measured using an automatic ELISA plate reader (Bio-Tek Instruments, Inc). IgG and IgM levels were calculated based on the standard curve. […]

[2] = tested on: murine splenic lymphocytes; test: Cell cycle analysis, in vitro (propidium iodide flow cytometry); type: cell-based, mouse; conditions: 48 hours, oligonucleotide 10 μg/ml, cyclodextrin 0.5%
spleen cells of CD1 mice = test: Cell cycle analysis of spleen cells from in vivo treated mice; design: species or system mouse
Experimental: as §1, with “The phosphorothioate oligonucleotide, either in plain PBS or mixed with cyclodextrin, was injected into mice intraperitoneally, in a volume of 0.25 ml (1 mg/mouse).” left out
Spleens from in vivo treated mice were harvested and single cell suspensions were set in culture in RPMI complete medium (10^6 cells/tube in 1 ml RPMI). After 4 hours of culture, cells were washed with FACS buffer and fixed for cell cycle analysis as described above. The experiments were done in duplicate.

[3] = tested on: immunostimulatory response; conditions: known from the literature; cited from earlier work
CD1 mice = test: Toxicity observation after intraperitoneal injection; type: in vivo, mouse; conditions: i.p. 50 mg/Kg
Experimental: as §1
Similar experiments were performed with the phosphorothioate oligonucleotide of SEQ ID NO:4. […] In order to reduce the toxicity, 25 mg/Kg of the phosphorothioate oligonucleotide of SEQ ID NO:4 was injected into the animals.

[4] = i.p. 1 mg/mouse (50 mg/Kg), 48 hr

In the case of 2-hydroxypropyl-β-cyclodextrin [HPCD], the “spleen weight compared to PBS-treated mice” value (spleen of CD1 mice; 5% HPCD alone) is reported as “no effect on spleen weight”.

In the case of “SEQ ID NO:2: phosphorothioate oligodeoxynucleotide complementary to the rev region of HIV-1; induces an immunostimulatory response (TCGTCGCTGTCTCCGCTTCTTCTTGCC; DNA, all phosphorothioate, methylation of C not given here)”, the HIV-1 replication (HIV-1) is given as “inhibit HIV-1 replication”, the “spleen weight relative to PBS-treated mice” value (spleen of CD1 mice; i.p. 1 mg/mouse, 48 hr, FIG. 4) is given as “about 1.5 times” and the “change in [3H] thymidine incorporation” value (mouse splenocytes; 0.1 μg/ml oligonucleotide, FIG. 1) is given as “no significant change”. The “cell proliferation ([3H]-thymidine incorporation)” value (mouse splenocytes) was “increases cell proliferation in a concentration-dependent manner”, the “production of IgG and IgM” value ([1]; SEQ ID NO:2, 48 hours after injection, FIG. 5) was “highly significant increase” and the “% cells in G0/G1” value [2] was 77.7 ± 1.0%. The “% cells in G2/S” value [2] was 22.3 ± 1.0%, the “Increase (cells in S/G2 phases compared with medium alone)” value [2] was 44.8% and the “% cells in G0/G1” value (spleen cells of CD1 mice; [4]) was 82.0 ± 1.2%. The “% cells in G2/S” value (spleen cells of CD1 mice; [4]) was 18.0 ± 1.2%.

For “SEQ ID NO:3: phosphorothioate oligonucleotide that binds to the human p53 oncogene (CCCTGCTCCCCCCTGGCTCC; all phosphorothioate, sugars by position and methylation of C not given here)”, the immunostimulatory effect [3] is listed as “does not induce an immunostimulatory effect”.

For “SEQ ID NO:4: phosphorothioate oligonucleotide, 20-mer that contains multiple 5′-CG-3′ motifs (GAGAACGCTCGACCTTCGAT; all phosphorothioate, sugars by position and methylation of C not given here)”, the immunostimulatory effect [3] is given as “induce an immunostimulatory response both in vitro and in vivo”, the “splenomegaly / spleen weight” value (spleen of CD1 mice; SEQ ID NO:4 i.p., 24 hr, FIG. 6) is given as “induced splenomegaly” and the “cell proliferation ([3H]-thymidine incorporation)” value (mouse splenocytes) is given as “dramatic increase in cell proliferation”. The “increase in production of IgG and IgM antibodies” value ([1]; SEQ ID NO:4, FIG. 7) was “approximately 10 fold”, the “% cells in G0/G1” value (spleen cells of CD1 mice; i.p. 25 mg/Kg, 24 hr) was 68.5 ± 0.5% and the “% cells in G2/S” value (spleen cells of CD1 mice; i.p. 25 mg/Kg, 24 hr) was 22.7 ± 0.5%. For the same substance, the “Increase (cells in G2/S compared with PBS)” value (spleen cells of CD1 mice; i.p. 25 mg/Kg, 24 hr) was 41%, the “stimulation of cell proliferation (cell cycle analysis)” value (spleen cells of CD1 mice; i.p. 25 mg/Kg, 24 hr) was “stimulated cell proliferation” and the toxicity observation (CD1 mice) was “noticeable bloody exudate and congestion in abdominal cavities”.
